Reference: patent US9963462B2 (priority 2015, dated 2018)

The compounds below were run on BH4 levels in SK-N-BE (2) cells (assay: SKN-N-BE (2) cellular assay, BH4 levels by LC-MS). Settings: Homo sapiens, SKNBE2, read-out: SK-N-BE(2) IC50, SK-N-BE (2) cells, BH4 levels by LC-MS.
Format: cell-based
Work on `Cc1c(C(=O)N2CC(N3CCC3)C2)cnn1-c1nn2cccc2c(=O)[nH]1` [Q-0985] yielded an IC50 of 9200 nM.
In the case of `Cc1c(C(=O)N2CC(OCC(F)(F)F)C2)cnn1-c1nn2cccc2c(=O)[nH]1` [Q-0987], the IC50 is reported as 1100 nM.
`Cc1c(C(=O)N2CCC(C3(C#N)CCCC3)CC2)cnn1-c1nn2cccc2c(=O)[nH]1` [Q-0988] was tested, and the IC50 was 69 nM.
Work on `Cc1c(C(=O)N2C3CCCC2CN(Cc2ccccc2)C3)cnn1-c1nn2cccc2c(=O)[nH]1` [Q-0989] yielded an IC50 of 900 nM.
Work on `Cc1c(C(=O)N2CCC(F)(c3ccc(Cl)cc3)CC2)cnn1-c1nn2cccc2c(=O)[nH]1` [Q-0990] yielded an IC50 of 200 nM.
For `O=C(c1cn(-c2nn3cccc3c(=O)[nH]2)nc1Cl)N1CCC(C(F)(F)F)CC1` [Q-0991], the IC50 was 100 nM.
In the case of `Cc1c(C(=O)N2CCC(N3CCC(F)(F)C3)C2)cnn1-c1nn2cccc2c(=O)[nH]1` (centres unmarked) [Q-0994], the IC50 is reported as 3000 nM.
`Cc1c(C(=O)N2CCC(F)(c3ccc(F)cc3)C2)cnn1-c1nn2cccc2c(=O)[nH]1` (centres unmarked) [Q-0996] showed an IC50 of 1900 nM.
Compound `Cc1c(C(=O)N2CC[C@H](OCc3cnc(Cl)s3)C2)cnn1-c1nn2cccc2c(=O)[nH]1` [Q-0997] has an IC50 of 1000 nM.
Work on `Cc1c(C(=O)N2CCC(C3(C#N)CCC3)CC2)cnn1-c1nn2cccc2c(=O)[nH]1` [Q-0999] yielded an IC50 of 200 nM.
In the case of `Cc1c(C(=O)N2CC(OCc3ccc(F)c(F)c3)C2)cnn1-c1nn2cccc2c(=O)[nH]1` [Q-1000], the IC50 is reported as 900 nM.
With `Cc1c(C(=O)N2CC3CC2C[C@@H]3C#N)cnn1-c1nn2cccc2c(=O)[nH]1` (some centres unmarked) [Q-1001] the IC50 was 1800 nM.
In the case of `Cc1c(C(=O)N2CC3CC2C[C@H]3C#N)cnn1-c1nn2cccc2c(=O)[nH]1` (some centres unmarked) [Q-1002], the IC50 is reported as 3400 nM.
With `Cc1c(C(=O)N2Cc3cc(C(F)(F)F)cnc3C2)cnn1-c1nn2cccc2c(=O)[nH]1` [Q-1004] the IC50 was 3100 nM.
Work on `COC1(C(F)(F)F)CCCN(C(=O)c2cnn(-c3nn4cccc4c(=O)[nH]3)c2C)C1` (centres unmarked) [Q-1006] yielded an IC50 of 1400 nM.
Work on `Cc1c(C(=O)Nc2ccc(F)cc2C(C)(C)O)cnn1-c1nn2cccc2c(=O)[nH]1` [Q-1008] yielded an IC50 of 300 nM.
`Cc1c(C(=O)N2CC(N3CC[C@@H](F)C3)C2)cnn1-c1nn2cccc2c(=O)[nH]1` [Q-1009] showed an IC50 of 2000 nM.
For `Cc1c(C(=O)N2CCC(N3CC[C@@H](F)C3)C2)cnn1-c1nn2cccc2c(=O)[nH]1` (some centres unmarked) [Q-1010], the IC50 was 4000 nM.
`Cc1c(C(=O)N2CC[C@@H](OCc3cnc(Cl)s3)C2)cnn1-c1nn2cccc2c(=O)[nH]1` [Q-1011] showed an IC50 of 800 nM.
With `Cc1c(C(=O)N2CCN(C(=O)Cc3ccccc3F)CC2)cnn1-c1nn2cccc2c(=O)[nH]1` [Q-1012] the IC50 was 1300 nM.
`Cc1c(C(=O)N2Cc3cc(Cl)cnc3C2)cnn1-c1nn2cccc2c(=O)[nH]1` [Q-1013] showed an IC50 of 1500 nM.
In the case of `Cc1c(C(=O)N2CCC[C@@H](OCC(F)(F)F)C2)cnn1-c1nn2cccc2c(=O)[nH]1` [Q-1014], the IC50 is reported as 1400 nM.
`Cc1c(C(=O)N2CCC(N3CCCC(C(F)(F)F)C3)CC2)cnn1-c1nn2cccc2c(=O)[nH]1` (centres unmarked) [Q-1015] showed an IC50 of 400 nM.
`Cc1c(C(=O)N2CCC(N3CCC[C@@H](F)C3)C2)cnn1-c1nn2cccc2c(=O)[nH]1` (some centres unmarked) [Q-1016] was tested, and the IC50 was 2400 nM.
For `CCC(C#N)C1CCN(C(=O)c2nnn(-c3nn4cccc4c(=O)[nH]3)c2C)CC1` (centres unmarked) [Q-1017], the IC50 was 300 nM.
Compound `Cc1c(C(=O)N2CCC3(CCN(CCC(F)(F)F)C3)CC2)cnn1-c1nn2cccc2c(=O)[nH]1` [Q-1018] has an IC50 of 700 nM.
`Cc1c(C(=O)N2CCC(N3CCC[C@@H]3C(F)(F)F)CC2)cnn1-c1nn2cccc2c(=O)[nH]1` [Q-1019] showed an IC50 of 400 nM.
In the case of `Cc1c(C(=O)N2CC(N3CCC(F)CC3)C2)cnn1-c1nn2cccc2c(=O)[nH]1` [Q-1021], the IC50 is reported as 1000 nM.
`Cc1c(C(=O)N2CC3(C2)CC(F)(F)C3)cnn1-c1nc2c(c(=O)[nH]1)CCC2` [Q-1023] was tested, and the IC50 was 700 nM.
For `Cc1c(C(=O)N2CC(N3CCC[C@H](F)C3)C2)cnn1-c1nn2cccc2c(=O)[nH]1` [Q-1025], the IC50 was 1200 nM.
For `Cc1c(C(=O)N2CCC(N3CCC[C@H](F)C3)C2)cnn1-c1nn2cccc2c(=O)[nH]1` (some centres unmarked) [Q-1026], the IC50 was 1700 nM.
`Cc1c(C(=O)N2CCC(N3CCC(F)CC3)C2)cnn1-c1nn2cccc2c(=O)[nH]1` (centres unmarked) [Q-1027] showed an IC50 of 3100 nM.
